# Experimental data taken from patent US7393853B2, “Use of substituted 8-Perfluoroalkyl-6,7,8,9-tetrahydropyrimido[1,2-a] pyrimidin-4-one derivatives as therapeutic agents” (Sanofi Aventis, priority 2003, dated 2008).
# Counter-ions that a name gives are not always drawn.
# Test system: not given
# Assay: not given
# Settings: not given
row,Compound,melting point
1,"N#Cc1ccc(C(=O)CN2c3nc(-c4ccncn4)cc(=O)n3CCC2C(F)(F)F)cc1 (racemic) [compound 17, 9-[2-(4-Cyanophenyl)-2-oxoethyl]-2-pyrimidin-4-yl-8-(trifluoromethyl)-6,7,8,9-tetrahydro-4H-pyrimido[1,2-a]pyrimidin-4-one]",201 to 203 °C
2,"O=C(CN1c2nc(-c3ccncn3)cc(=O)n2CCC1C(F)(F)F)c1ccc(-c2ccccc2)cc1 (racemic) [compound 18, 9-(2-biphenyl-4-yl-2-oxoethyl)-2-pyrimidin-4-yl-8-(trifluoromethyl)-6,7,8,9-tetrahydro-4H-pyrimido[1,2-a]pyrimidin-4-one]",231 to 233 °C
3,"O=C(CN1c2nc(-c3ccncn3)cc(=O)n2CCC1C(F)(F)F)c1cccc(Br)c1 (racemic) [compound 13, 9-[2-(3-Bromophenyl)-2-oxoethyl]-2-pyrimidin-4-yl-8-(trifluoromethyl)-6,7,8,9-tetrahydro-4H-pyrimido[1,2-a]pyrimidin-4-one]",236 to 238 °C
4,"O=c1cc(-c2ccncn2)nc2n1CCC(C(F)(F)F)N2Cc1ccccc1 (racemic) [compound 11, 9-(Phenylmethyl)-2-pyrimidin-4-yl-8-(trifluoromethyl)-6,7,8,9-tetrahydro-4H-pyrimido[1,2-a]pyrimidin-4-one]",177 to 179 °C
5,"O=C(CN1c2nc(-c3ccncn3)cc(=O)n2CCC1C(F)(F)F)c1ccc(F)cc1 (racemic) [compound 16, 9-[2-(4-Fluorophenyl)-2-oxoethyl]-2-pyrimidin-4-yl-8-(trifluoromethyl)-6,7,8,9-tetrahydro-4H-pyrimido[1,2-a]pyrimidin-4-one]",253 to 255 °C

# Continued, values first:
row,melting point,Compound
1,239 to 241 °C,"Cc1ccc(C(=O)CN2c3nc(-c4ccncn4)cc(=O)n3CCC2C(F)(F)F)cc1 (racemic) [compound 15, 9-[2-(4-Methylphenyl)-2-oxoethyl]-2-pyrimidin-4-yl-8-(trifluoromethyl)-6,7,8,9-tetrahydro-4H-pyrimido[1,2-a]pyrimidin-4-one]"
2,241 to 242 °C,"O=C(CN1c2nc(-c3ccncc3)c(F)c(=O)n2CCC1C(F)(F)F)c1ccccc1 (racemic) [compound 10, 3-Fluoro-9-(2-oxo-2-phenylethyl)-2-pyridin-4-yl-8-(trifluoromethyl)-6,7,8,9-tetrahydro-4H-pyrimido[1,2-a]pyrimidin-4-one]"
3,245 to 247 °C,"O=C(CN1c2nc(-c3ccncn3)cc(=O)n2CCC1C(F)(F)F)c1cccc(F)c1 (racemic) [compound 14, 9-[2-(3-Fluorophenyl)-2-oxoethyl]-2-pyrimidin-4-yl-8-(trifluoromethyl)-6,7,8,9-tetrahydro-4H-pyrimido[1,2-a]pyrimidin-4-one]"
4,147 to 149 °C,"O=c1cc(-c2ccncn2)nc2n1CCC(C(F)(F)F)N2CCc1ccccc1 (racemic) [compound 12, 9-(2-Phenylethyl)-2-pyrimidin-4-yl-8-(trifluoromethyl)-6,7,8,9-tetrahydro-4H-pyrimido[1,2-a]pyrimidin-4-one]"

# Biological target: GSK3β (Homo sapiens, UniProt P49841)
# Sequence (P49841 whole entry, species assumed): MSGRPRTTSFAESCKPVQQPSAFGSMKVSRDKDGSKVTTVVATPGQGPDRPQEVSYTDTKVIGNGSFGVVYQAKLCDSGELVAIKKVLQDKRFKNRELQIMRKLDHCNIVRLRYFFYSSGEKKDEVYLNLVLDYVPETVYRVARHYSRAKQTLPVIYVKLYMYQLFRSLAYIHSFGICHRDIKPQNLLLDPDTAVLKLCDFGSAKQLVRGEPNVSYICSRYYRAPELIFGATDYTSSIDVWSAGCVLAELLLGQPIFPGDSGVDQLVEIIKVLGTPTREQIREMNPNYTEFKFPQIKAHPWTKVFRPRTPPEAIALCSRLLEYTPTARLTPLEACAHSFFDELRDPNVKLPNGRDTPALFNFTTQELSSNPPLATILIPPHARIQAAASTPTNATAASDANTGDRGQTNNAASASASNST
# Assay: Inhibitory activity against GSK3β (33P-ATP phosphorylation of prephosphorylated GS1 peptide, two protocols)
# Type: biochemical
# Settings: protocol (first or second) not specified
# Procedure: Inhibitory Activity of the Medicament of the Present Invention Against GSK3β
# Two different protocols can be used.
# In a first protocol: 7.5 μM of prephosphorylated GS1 peptide and 10 μM ATP (containing 300,000 cpm of 33P-ATP) were incubated in 25 mM Tris-HCl, pH 7.5, 0.6 mM DTT, 6 mM MgCl2, 0.6 mM EGTA, 0.05 mg/ml BSA buffer for 1 hour at room temperature in the presence of GSK3beta (total reaction volume: 100 microliters).
# In a second protocol: 4.1 μM of prephosphorylated GS1 peptide and 42 μM ATP (containing 260,000 cpm 33P-ATP) were incubated in 80 mM Mes-NaOH, pH 6.5, 1 mM Mg acetate, 0.5 mM EGTA, 5 mM 2-mercaptoethanol, 0.02% Tween 20, 10% glycerol buffer for 2 hours at room temperature in the presence of GSK3beta.
# Inhibitors were solubilized in DMSO (final solvent concentration in the reaction medium, 1%).
# The reaction was stopped with 100 microliters of a solution made of 25 g polyphosphoric acid (85% P2O5), 126 ml 85% H3PO4, H2O to 500 ml and then diluted to 1:100 before use. An aliquot of the reaction mixture was then transferred to Whatman P81 cation exchange filters and rinsed with the solution described above. Incorporated 33P radioactivity was determined by liquid scintillation spectrometry.
# The phosphorylated GS-1 peptide had the following sequence: […]
row,IC50,Compound
1,3 nM,"O=C(CN1c2nc(-c3ccncc3)cc(=O)n2CCC1C(F)(F)F)c1ccccc1 (single isomer, unassigned; (-)) [compound 6, (−)-9-(2-Oxo-2-phenyl-ethyl)-2-(4-pyridinyl)-8-(trifluoromethyl)-6,7,8,9-tetrahydro-4H-pyrimido[1,2-a]pyrimidin-4-one hydrochloride (1:1).]"
